Experimental data: article PMC9668969 (Nature Communications, 2022)
Several values for one entry are separate records, joined by “and”; a condition that tells them apart may be missing. Identical values can stand only once.

System: WT ELIC
Assay: Fluorescence stopped-flow liposomal Tl+ flux assay, symmetric liposomes
Type: biochemical, Erwinia chrysanthemi
Conditions: for Avg (stopped-flow fluorescence quenching rate): average of experiments; for Rate (stopped-flow fluorescence quenching rate): single experiments
Method: The fluorescence sequential-mixing stopped-flow liposomal flux measurements were carried using an SX20 stopped-flow spectrofluorometer (Applied Photophysics) and Pro-Data SX software[13],[30]. 7.5 mg of the respective lipid mixture (POPC, 1:1 POPC: POPE, 1:1 POPC:POPG, 3:1 POPC:POPE, 3:1 POPC:POPG, 2:1:1 POPC:POPE:POPG) was dried in a glass vial to a thin film under a constant stream of N2. The lipids were then further dried under vacuum in a desiccator overnight. The following day the lipids were hydrated in 500 µl of reconstitution buffer (100 mM NaNO3, 10 mM HEPES, pH 7) (Buffer R), 250 µl of 75 mM 8-Aminonaphthalene-1,3,6-Trisulfonic Acid (ANTS, ThermoFisher Scientific) in buffer R, and doped with ~18 mg of CHAPS (Anatrace). The mixture was vortexed and then sonicated with heat until completely solubilized. Following the sonication, the solution was brought to RT then 3.5 µl of 6.7 mg/ml ELIC in Buffer A with 0.02% DDM was added (3 µg per mg of lipid). This combined solution was incubated at RT for 30 min, followed by the addition of 1 ml of 1:1 v/v SM-2 BioBeads in Buffer R and an additional 250 µl of 75 mM ANTS in Buffer R. This mixture was incubated at RT for 2.5 hr with gentle mixing. The liposome suspension was then extruded with an Avanti mini-extruder and 0.1 µm membrane (30×). The extruded liposomes were stored at 13 °C overnight with gentle rotation. The next day, the liposomes were diluted to 2.5 mL using assay buffer (140 mM NaNO3, 10 mM HEPES, pH 7) (Stopped-flow Buffer A), loaded into a PD-10 desalting column (Cytiva), eluted with 3 mL of Stopped-flow Buffer A and subsequently diluted 5-fold with Stopped-flow Buffer A.
Using propylamine as the agonist, the assay and analysis was carried out as previously described[13],[30]. ELIC-containing liposomes were first mixed 1:1 with Buffer A containing 2× the concentration of propylamine. After a variable delay of 10 ms to 25 s, the sample was then mixed 1:1 with a quenching buffer (90 mM NaNO3, 50 mM TlNO3, 10 mM HEPES, pH 7), and ANTS fluorescence (ex. 360 nm, fluorescence above 420 nm) was recorded for 1 s. For each delay time, 5 repeat measurements were obtained. The data were collected using Applied Photophysics Pro-Data SX software. The fluorescence quenching traces were fit to a stretched exponential (Eq. 2a) and the rate of Tl^+ influx was determined at 2 ms (Eq. 2b).2a Ft=F∞+F0−F∞⋅e^−t/τ^β 2b kt=β/τ⋅2ms/τ^(β−1) where Ft, F∞, F0 are the fluorescence at time t, final fluorescence and initial fluorescence. τ is the time constant, β the stretched exponential factor, and kt the calculated rate of Tl^+ influx at 2 ms. The time course of desensitization was also fit to a double exponential and a weighted time constant was calculated as was done for the patch-clamp data using Origin 2019b. All replicates were taken from independent samples.

[1] = WT in PC liposomes, 0.3 mM PA, delay time 0
[2] = WT in PC liposomes, 1 mM PA, delay time 0

CCCN [propylamine]
Avg (stopped-flow fluorescence quenching rate) (WT in 2:1:1 PC:PE:PG liposomes, 3 mM PA, delay time 5): 145.791
Avg (stopped-flow fluorescence quenching rate) (WT in 2:1:1 PC:PE:PG liposomes, 3 mM PA, delay time 10): 107.502
Avg (stopped-flow fluorescence quenching rate) (WT in 2:1:1 PC:PE:PG liposomes, 3 mM PA, delay time 25): 38.6642
Rate (stopped-flow fluorescence quenching rate) (WT in 2:1:1 PC:PE:PG liposomes, 10 mM PA, delay time 0): 0
Avg (stopped-flow fluorescence quenching rate) (WT in 2:1:1 PC:PE:PG liposomes, 10 mM PA, delay time 0.025): 169.086
Avg (stopped-flow fluorescence quenching rate) (WT in 2:1:1 PC:PE:PG liposomes, 10 mM PA, delay time 0.05): 180.798
Avg (stopped-flow fluorescence quenching rate) (WT in 2:1:1 PC:PE:PG liposomes, 10 mM PA, delay time 0.05 [sic] (between 0.25 and 1)): 198.043
Rate (stopped-flow fluorescence quenching rate) (WT in 2:1:1 PC:PE:PG liposomes, 10 mM PA, delay time 0.05 [sic] (between 0.25 and 1), listed as PA): 249.635 and 148.719 and 195.774
Avg (stopped-flow fluorescence quenching rate) (WT in 2:1:1 PC:PE:PG liposomes, 10 mM PA, delay time 0.1): 165.345
Avg (stopped-flow fluorescence quenching rate) (WT in 2:1:1 PC:PE:PG liposomes, 10 mM PA, delay time 0.25): 213.572
Rate (stopped-flow fluorescence quenching rate) (WT in 2:1:1 PC:PE:PG liposomes, 10 mM PA, delay time 0.25, listed as PA): 256.17 and 144.253 and 240.291
Avg (stopped-flow fluorescence quenching rate) (WT in 2:1:1 PC:PE:PG liposomes, 10 mM PA, delay time 1): 169.644
Rate (stopped-flow fluorescence quenching rate) (WT in 2:1:1 PC:PE:PG liposomes, 10 mM PA, delay time 1, listed as PA): 228.219 and 122.935 and 157.778
Avg (stopped-flow fluorescence quenching rate) (WT in 2:1:1 PC:PE:PG liposomes, 10 mM PA, delay time 2.5): 155.074
Avg (stopped-flow fluorescence quenching rate) (WT in 2:1:1 PC:PE:PG liposomes, 10 mM PA, delay time 5): 103.359
Avg (stopped-flow fluorescence quenching rate) (WT in 2:1:1 PC:PE:PG liposomes, 10 mM PA, delay time 10): 60.9022
Avg (stopped-flow fluorescence quenching rate) (WT in 2:1:1 PC:PE:PG liposomes, 10 mM PA, delay time 25): 14.6606
Rate (stopped-flow fluorescence quenching rate) (WT in 2:1:1 PC:PE:PG liposomes, 10 mM PA, delay time 25, listed as PA): 13.7363 and 15.821 and 14.4245
Rate (stopped-flow fluorescence quenching rate) (WT in 2:1:1 PC:PE:PG liposomes, 30 mM PA, delay time 0): 0
Avg (stopped-flow fluorescence quenching rate) (WT in 2:1:1 PC:PE:PG liposomes, 30 mM PA, delay time 0.025): 74.8381
Avg (stopped-flow fluorescence quenching rate) (WT in 2:1:1 PC:PE:PG liposomes, 30 mM PA, delay time 0.05): 63.4545
Avg (stopped-flow fluorescence quenching rate) (WT in 2:1:1 PC:PE:PG liposomes, 30 mM PA, delay time 0.1): 63.448
Avg (stopped-flow fluorescence quenching rate) (WT in 2:1:1 PC:PE:PG liposomes, 30 mM PA, delay time 0.25): 66.7765
Avg (stopped-flow fluorescence quenching rate) (WT in 2:1:1 PC:PE:PG liposomes, 30 mM PA, delay time 0.5): 62.7383
Avg (stopped-flow fluorescence quenching rate) (WT in 2:1:1 PC:PE:PG liposomes, 30 mM PA, delay time 1): 67.601
Avg (stopped-flow fluorescence quenching rate) (WT in 2:1:1 PC:PE:PG liposomes, 30 mM PA, delay time 2.5): 40.183
Avg (stopped-flow fluorescence quenching rate) (WT in 2:1:1 PC:PE:PG liposomes, 30 mM PA, delay time 5): 15.7901
Avg (stopped-flow fluorescence quenching rate) (WT in 2:1:1 PC:PE:PG liposomes, 30 mM PA, delay time 10): 23.9739
Avg (stopped-flow fluorescence quenching rate) (WT in 2:1:1 PC:PE:PG liposomes, 30 mM PA, delay time 25): 10.034
Rate (stopped-flow fluorescence quenching rate) (WT in 2:1:1 PC:PE:PG liposomes, 30 mM PA, delay time 25, listed as PA): 8.132 and 11.9359
Avg (stopped-flow fluorescence quenching rate) [1]: 0
Rate (stopped-flow fluorescence quenching rate) [1]: 0
Avg (stopped-flow fluorescence quenching rate) (WT in PC liposomes, 0.3 mM PA, delay time 0.01): 0.08537
Rate (stopped-flow fluorescence quenching rate) (WT in PC liposomes, 0.3 mM PA, delay time 0.01, listed as PA): 0.07068 and 0.08871 and 9.67E-02
Avg (stopped-flow fluorescence quenching rate) (WT in PC liposomes, 0.3 mM PA, delay time 0.025): 0.09939
Avg (stopped-flow fluorescence quenching rate) (WT in PC liposomes, 0.3 mM PA, delay time 0.05): 0.06401
Avg (stopped-flow fluorescence quenching rate) (WT in PC liposomes, 0.3 mM PA, delay time 0.1): 0.08141
Avg (stopped-flow fluorescence quenching rate) (WT in PC liposomes, 0.3 mM PA, delay time 0.25): 0.0402
Rate (stopped-flow fluorescence quenching rate) (WT in PC liposomes, 0.3 mM PA, delay time 0.25, listed as PA): 0.04925 and 0.03838 and 0.03298
Avg (stopped-flow fluorescence quenching rate) (WT in PC liposomes, 0.3 mM PA, delay time 0.5): 0.1212
Rate (stopped-flow fluorescence quenching rate) (WT in PC liposomes, 0.3 mM PA, delay time 0.5, listed as PA): 0.0905 and 0.1754 and 0.09759
Avg (stopped-flow fluorescence quenching rate) (WT in PC liposomes, 0.3 mM PA, delay time 1): 0.07413
Avg (stopped-flow fluorescence quenching rate) (WT in PC liposomes, 0.3 mM PA, delay time 2.5): 0.08146
Rate (stopped-flow fluorescence quenching rate) (WT in PC liposomes, 0.3 mM PA, delay time 2.5, listed as PA): 0.09799 and 0.04957 and 0.09682
Avg (stopped-flow fluorescence quenching rate) (WT in PC liposomes, 0.3 mM PA, delay time 5): 0.09461
Avg (stopped-flow fluorescence quenching rate) [2]: 0
Rate (stopped-flow fluorescence quenching rate) [2]: 0
Avg (stopped-flow fluorescence quenching rate) (WT in PC liposomes, 1 mM PA, delay time 0.01): 0.0808
Rate (stopped-flow fluorescence quenching rate) (WT in PC liposomes, 1 mM PA, delay time 0.01, listed as PA): 0.07542 and 0.09146 and 0.07551
Avg (stopped-flow fluorescence quenching rate) (WT in PC liposomes, 1 mM PA, delay time 0.025): 0.1635
Avg (stopped-flow fluorescence quenching rate) (WT in PC liposomes, 1 mM PA, delay time 0.05): 0.08808
Rate (stopped-flow fluorescence quenching rate) (WT in PC liposomes, 1 mM PA, delay time 0.05, listed as PA): 0.09304 and 0.1089 and 0.06236
